# Reference: US20240352020A1, “PYRAZOLE-CONTAINING CBP/CATENIN ANTAGONISTS AND USES THEREOF” (3+2 PHARMA, LLC, priority 2021, published 2024)
# Columns and labels:
# [1] = intravenous, patients with HCV cirrhosis, cited from earlier work
# [2] = system: T memory stem cells (SCM) and central memory T-cells (CM); settings: ART-suppressed SIVmac251-infected RMs; cited from earlier work
# CBP/β-Catenin = experiment: SuperTOPFLASH cell-based luciferase assay (Wnt-driven Luciferase Activity in Stably Transfected Cell Line, Hek293, STF1.1)
# Protocol: SuperTOPFLASH Cell-based Luciferase Assay. Hek-293, STF1.1 cells are maintained in DMEM, 10% FBS, Pen-Strep supplemented with 200 μg/mL G418. On the day prior to assay, cells are split into a white, opaque 96-well plate at 10,000 cells per well in 50 μL of complete medium without G418 (for screening of Wnt-signaling inhibitors, G418 can be left out during screening process). After allowing the cells to stabilize and attach overnight, 40 μL of complete medium (without G418) containing 2.5× final concentration of compound or DMSO control is added to the cells and allowed to incubate for 1 hour at 37° C., 5% CO2 prior to adding 10 μL of a 100 mM LiCl solution prepared in complete medium (without G418). After 24 hours, 100 μL of BrightGlo (Promega, Cat. #: G7573) is added to each well and the plate is shaken for 5 minutes prior to reading on the Perkin-Elmer EnVision Plate Reader. For example, on the day prior to assay: cells are split into a white opaque 96-well plate at 10,000 cells per well in 50 μL of complete growth medium; the plate is incubated overnight at 37° C., 5% CO2 and the cells allowed to attach; the next day inhibitors to be tested are prepared in complete growth medium at 2.5× the desired final concentration (all conditions are done in duplicates), and 40 μL of the medium containing the 2.5× concentration of compound is added to each well (include 2 wells for stimulation control, 2 wells for DMSO control, and wells for the positive control ICG-001 (e.g., 2, 5, and 10 micromolar)); once all inhibitors and controls are added, incubate the plate for 1 hour at 37° C., 5% CO2 (while plate is incubating, prepare fresh 100 mM LiCl in complete growth medium); after 1 hour, the plate is removed from the incubator and 10 μL of the medium containing 100 mM LiCl are added to each well (except for the two wells of the unstimulated control, to which […] of just complete medium is added); the plate is incubated for 24 hours at 37° C., 5% CO2; after 24 hours, 100 microliters of BrightGlo (Promega, Cat. #: G7573) is added to each well, the plate is shaken for 5 minutes to ensure complete lysis, and the plate is then read on a Perkin-Elmer EnVision 96-well plate reader.
# [3] = 10 and 40 mg/m^2/day for 12 weeks
# [4] = FIG. 1, compounds 0.078 μM to 10 μM, ICG-001 positive control at 0.62-20 μM
# [5] = FIG. 2, compounds 0.625 μM to 5 μM, ICG-001 positive control at 2.5, 5 and 10 μM
structure (smiles),measurement,setting,value
C[C@H]1[C@H]2N(C(=O)CN(C)N2C(=O)NCc2ccccc2)[C@@H](Cc2ccc(OP(=O)(O)O)cc2)C(=O)N1Cc1cccc2cccnc12 [PRI-724],Safety,[1]; 10 and 40 mg/m^2/day for 12 weeks (1 week on and 1 week off),appeared to be safe
same,Liver histology and Child Pugh scores,[1]; [3],improvement in liver histology and Child Pugh scores in several patients
same,Plasma exposure of the drug,[1]; [3],dose-dependent plasma exposure
same,Proliferation of T memory stem cells (SCM) and central memory (CM) T-cells,[2],decrease proliferation
"O=C1[C@H](Cc2ccc(O)cc2)N2C(=O)CN(Cc3cnn(-c4ccccc4)c3Br)N(C(=O)NCc3ccccc3)[C@H]2CN1Cc1cccc2ncccc12 [Compound 2, (6S,9aS)—N-benzyl-2-((5-bromo-1-phenyl-1H-pyrazol-4-yl)methyl)-6-(4-hydroxybenzyl)-4,7-dioxo-8-(quinolin-5-ylmethyl)octahydro-1H-pyrazino[2,1-c][1,2,4]triazine-1-carboxamide]",CBP/β-Catenin inhibition activity: potency compared with ICG-001,CBP/β-Catenin; [4],greater potency than that of ICG-001
"O=C1[C@H](Cc2ccc(O)cc2)N2C(=O)CN(Cc3ccn(-c4ccccc4)n3)N(C(=O)NCc3ccccc3)[C@H]2CN1Cc1cccc2cccnc12 [Compound 3, (6S,9aS)—N-benzyl-6-(4-hydroxybenzyl)-4,7-dioxo-2-((1-phenyl-1H-pyrazol-3-yl)methyl)-8-(quinolin-8-ylmethyl)octahydro-1H-pyrazino[2,1-c][1,2,4]triazine-1-carboxamide]",CBP/β-Catenin inhibition activity: potency compared with ICG-001,CBP/β-Catenin; [5],greater potency than that of ICG-001
"O=C1[C@H](Cc2ccc(O)cc2)N2C(=O)CN(Cc3cnn(-c4ccccc4)c3)N(C(=O)NCc3ccccc3)[C@H]2CN1Cc1cccc2cccnc12 [Compound 4, (6S,9aS)—N-benzyl-6-(4-hydroxybenzyl)-4,7-dioxo-2-((1-phenyl-1H-pyrazol-4-yl)methyl)-8-(quinolin-8-ylmethyl)octahydro-1H-pyrazino[2,1-c][1,2,4]triazine-1-carboxamide]",CBP/β-Catenin inhibition activity: potency compared with ICG-001,CBP/β-Catenin; [5],greater potency than that of ICG-001
same,CBP/β-Catenin inhibition activity: potency compared between compounds 3 and 4,"CBP/β-Catenin; FIG. 2, concentrations between 0.625 μM and 5 μM",greater potency than that of compound 3
"O=C1[C@H](Cc2ccc(O)cc2)N2C(=O)CN(Cc3cnn(-c4ccccc4)c3)N(C(=O)NCc3ccccc3)[C@H]2CN1Cc1cccc2ncccc12 [Compound 1, (6S,9aS)—N-benzyl-6-(4-hydroxybenzyl)-4,7-dioxo-2-((1-phenyl-1H-pyrazol-4-yl)methyl)-8-(quinolin-5-ylmethyl)octahydro-1H-pyrazino[2,1-c][1,2,4]triazine-1-carboxamide]",CBP/β-Catenin inhibition activity: potency compared with ICG-001,CBP/β-Catenin; [4],greater potency than that of ICG-001
same,CBP/β-Catenin inhibition activity: potency compared between compounds 1 and 2,"CBP/β-Catenin; FIG. 1, concentrations between 0.078 μM and 10 μM",greater potency than that of compound 2
